Data: paper PMC3856649 (Clinical cancer research : an official journal of the …, 2012)
Values joined by “and” are separate entries in the source; they are usually repeats but may differ in a detail not shown here. Equal values may be shown once.

Experiments:
[1] = Clinical plasma pharmacokinetics in patients with advanced breast cancer; assay type: in vivo, human; details: for Tmax: po, 20 mg
[2] = tested on: NOTCH1; experiment: In vitro Notch cellular assay; assay type: cell-based, human
[3] = tested on: plasma proteins
[4] = tested on: plasma proteins; remark: listed apart in the source
[5] = in vitro; details: human, human plasma, pH 7.2
[6] = target: human α1-acid glycoprotein (AAG) (Homo sapiens, UniProt P02763); experiment: Equilibrium dialysis, binding in isolated AAG solution; details: for mean Fu: total drug 500 ng/mL (1,065 nmol/L); for RO4929097 fraction unbound estimated from Equation (A): nK 1.0 × 10^6 L/mol; for maximum binding concentration (nP) of AAG: estimate ± SE
[7] = target: HSA (Homo sapiens, UniProt P02768); experiment: Equilibrium dialysis; assay type: binding
[8] = tested on: AAG; details: cited from earlier work
[9] = daily oral 150 mg/d in patients with cancer; cited from earlier work
[10] = given alone, 20 mg orally, median (interquartile range), n = 8
[11] = single oral dose of 20 mg in 8 patients
[12] = Homo sapiens, U2OS, 24 h, read-out: inhibition of cellular Notch activity

Sequence of human α1-acid glycoprotein (AAG) (P02763 19-201): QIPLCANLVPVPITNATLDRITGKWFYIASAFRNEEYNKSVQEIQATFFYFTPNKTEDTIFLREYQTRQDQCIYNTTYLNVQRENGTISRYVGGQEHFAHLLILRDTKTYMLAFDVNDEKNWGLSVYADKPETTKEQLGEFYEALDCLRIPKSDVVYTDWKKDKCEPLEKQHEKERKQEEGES
Sequence of HSA (P02768 25-609): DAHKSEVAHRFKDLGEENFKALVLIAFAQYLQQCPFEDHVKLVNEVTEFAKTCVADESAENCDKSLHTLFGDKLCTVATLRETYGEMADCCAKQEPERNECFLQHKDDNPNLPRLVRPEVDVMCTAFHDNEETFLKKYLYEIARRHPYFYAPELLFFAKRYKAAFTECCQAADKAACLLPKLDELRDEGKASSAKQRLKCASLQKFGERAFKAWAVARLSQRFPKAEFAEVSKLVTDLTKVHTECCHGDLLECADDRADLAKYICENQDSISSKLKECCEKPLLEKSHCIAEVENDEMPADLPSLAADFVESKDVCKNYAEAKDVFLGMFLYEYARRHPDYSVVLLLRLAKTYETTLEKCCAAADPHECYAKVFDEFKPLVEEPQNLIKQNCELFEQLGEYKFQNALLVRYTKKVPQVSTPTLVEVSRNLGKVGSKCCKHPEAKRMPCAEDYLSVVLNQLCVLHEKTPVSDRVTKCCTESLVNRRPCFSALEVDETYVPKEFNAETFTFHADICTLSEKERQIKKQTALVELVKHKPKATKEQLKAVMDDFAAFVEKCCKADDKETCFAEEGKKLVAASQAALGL

CC(C)(C(=O)NCC(F)(F)C(F)(F)F)C(=O)N[C@@H]1C(=O)Nc2ccccc2-c2ccccc21 [RO4929097]
Decrease in average systemic exposure to total RO4929097 ([1]; co-administered with GDC-0449): 8.3 fold | Decrease in average unbound RO4929097 exposure ([1]; co-administered with GDC-0449): 1.7 fold | Unbound RO4929097 AUC0–24h [1, 10]: 52.8 (33.2–64.9) nmol/L h | Unbound RO4929097 Cmax [1, 10]: 4.3 (2.7–5.6) nmol/L | AUC(0-t) ([1]; human, plasma, oral, Total RO4929097 AUC0–24h, in combination with GDC-0449 150 mg orally, median (interquartile range), n = 8): 0.723 µM·h | Tmax ([1]; human, plasma, Total RO4929097 Tmax, given alone, 20 mg orally, median (interquartile range), n = 8): 2.5 h | Tmax ([1]; human, plasma, Unbound RO4929097 Tmax, given alone, 20 mg orally, median (interquartile range), n = 8): 1.5 h | Interindividual variability of total RO4929097 AUC0-24h (max/min) ([1]; single oral dose of 20 mg): 16 fold and up to 16 fold | Interindividual variability of total RO4929097 Cmax (max/min) ([1]; single oral dose of 20 mg): 15 fold | Interindividual variability of unbound RO4929097 AUC0-24h (max/min) ([1]; single oral dose of 20 mg): 4 fold | Interindividual variability of unbound RO4929097 Cmax (max/min) ([1]; single oral dose of 20 mg): 3 fold | Unbound RO4929097 AUC0-24h, range among patients ([1]; single oral dose of 20 mg): 0.0281 to 0.113 µM·h | Unbound RO4929097 Cmax, range among patients ([1]; single oral dose of 20 mg): 1.9 to 6.1 nM | Coefficient variation of AUC0-24h, total RO4929097 [1, 11]: 99% | Coefficient variation of AUC0-24h, unbound RO4929097 [1, 11]: 49% | RO4929097 Notch-inhibitory activity in presence of AAG ([2]; AAG 0.5, 1.4, […], total RO4929097 500 and 5,000 nmol/L): significantly reduced | inhibition at 0.05 µM [2, 12]: 2.1% | inhibition at 0.5 µM [2, 12]: 62% | inhibition at 5 µM [2, 12]: 73% | IC50 ([2]; Homo sapiens, U2OS, read-out: unbound RO4929097 concentration for 50% inhibition of the maximum Notch activity (IC50)): 109 nM | bound in human plasma [3]: > 97% | intraindividual variability in RO4929097 fraction unbound ([4]; during the treatment in individual patient): up to 5 fold | interindividual variability in RO4929097 fraction unbound ([4]; patients, alone or in combination with GDC-0449): up to 10 fold | fraction unbound at 24 h [5]: 0.047 | mean Fu ([6]; AAG 0.2 mg/mL): 19.0% | RO4929097 fraction unbound estimated from Equation (A) ([6]; AAG 0.5 mg/mL): 8% | maximum binding concentration (nP) of AAG ([6]; AAG 1.4 mg/mL, Equation (C), GDC-0449 0 μmol/L): 23.1 µmol/L and 23.1 ± 0.9 µmol/L | maximum binding concentration (nP) of AAG ([6]; AAG 1.4 mg/mL, GDC-0449 5 μmol/L): 25.3 ± 1.1 µmol/L | maximum binding concentration (nP) of AAG ([6]; AAG 1.4 mg/mL, GDC-0449 25 μmol/L): 34.9 ± 2.0 µmol/L | RO4929097 fraction unbound estimated from Equation (A) ([6]; AAG 1.4 mg/mL): 3% | mean Fu ([6]; AAG […]): 1.1% | total binding constant (nK) for AAG ([6]; Equation (A), Fu versus protein concentration, nonlinear regression): 1e+06 L/mol and 1.1e+06 L/mol

CC(C)(C(=O)NCC(F)(F)C(F)(F)F)C(=O)N[C@@H]1C(=O)Nc2ccccc2-c2ccccc21 [RO4929097, RO4929097 (γ-secretase inhibitor)]
Kd [7]: 90900 nM

Cc1ccc(NC(=O)c2ccc(CN3CCN(C)CC3)cc2)cc1Nc1nccc(-c2cccnc2)n1 [imatinib]
binding affinity for AAG (Ka) [8]: 1.7e+06 L/mol

CS(=O)(=O)c1ccc(C(=O)Nc2ccc(Cl)c(-c3ccccn3)c2)c(Cl)c1 [GDC-0449]
Kd ([8]; read-out: Kd for AAG, in vitro equilibrium dialysis): 1500 nM | average steady-state plasma concentration of total GDC-0449 [9]: approximately 25 μmol/L | unbound drug levels as % of the total drug [9]: less than 1%
